{"source": "patent US7189518B2", "about": "“Soluble CD40L(CD154) as a prognostic marker of atherosclerotic diseases” (The Brigham and Women's Hospital, Inc., priority 2001, dated 2007)", "type_in_all_cases": "cell-based", "key": {"[1]": {"tested_on": "human vascular EC, SMC, and MØ", "assay": "Western blot of CD40 and CD40L protein expression in cultured human vascular cells", "details": "for Concentration required to reduce CD40/CD40L expression: higher than for cerivastatin", "experimental": "Viability of the cultures was determined by trypan blue (Sigma, St. Louis, Mo.) exclusion count as well as an oligonucleosome formation assay (Cell Death Detection ELISA, Boehringer Mannheim, Germany).\nCulture lysates (50 μg total protein/lane) and supernatants were separated by SDS-PAGE and blotted to polyvinylidene difluoride membranes (Bio-Rad, Hercules, Calif.) using a semi-dry blotting apparatus (3 mA/cm^2, 30 min; Bio-Rad, Hercules, Calif.). Blots were blocked and primary (mouse-anti-human CD40 or CD40L; both 1:1,000; PharMingen, San Diego, Calif.) antibodies were added in 5% defatted dry milk/PBS/0.1% Tween 20. After 1 h, blots were washed three times (PBS/0.1% Tween 20) and secondary, peroxidase-conjugated, goat-anti-mouse antibody (Jackson Immunoresearch, West Grove, Pa.) was added (1 h). Finally, blots were washed and immunoreactive proteins were visualized using the Western blot chemiluminescence system (NEN™, Boston, Mass.). Data were verified by employing anti-CD40/-CD40L antibodies from Santa Cruz (Santa Cruz, Calif.)."}, "human vascular EC and MØ": {"tested_on": "human vascular EC and MØ", "assay": "RT-PCR of CD40 and CD40L mRNA expression in cultured human vascular cells", "experimental": "(§1) Human vascular EC and SMC were isolated from saphenous veins and cultured as described previously.^4,26 Mononuclear phagocytes (MØ) were isolated from leukocyte concentrates by density gradient centrifugation employing Lymphocyte Separation Medium (Organon-Teknika, Durham, N.C.) and were cultured (10 days) in RPMI 1640 (BioWhittaker, Walkersville, Md.) containing 2% human serum (Sigma; St. Louis, Mo.).^26 All cell types were cultured 24 h before and during the experiment in media lacking serum. Viability of the cultures was determined by trypan blue (Sigma, St. Louis, Mo.) exclusion count as well as an oligonucleosome formation assay (Cell Death Detection ELISA, Boehringer Mannheim, Germany).\nTotal RNA isolated from cultured EC, SMC, or MØ employing RNAzol (Tel-Test; Friendswood, Tex.) was assessed for purity and yield spectrophotometrically (2100 Bioanalyzer, Agilent Technologies, Wilmington, Del.) and was reverse-transcribed (2 μg total RNA; 50 min, 42° C.) employing Superscript II Reverse Transcriptase (LifeTechnologies, Carlsbad, Calif.). PCR was performed for 35 cycles at 95° C. (120 sec), 62° C. (120 sec), and 72° C. […] PCR products were analyzed on ethidium bromide-containing 1.3% agarose gels and visualized by UV transillumination. […]"}, "[2]": {"tested_on": "human vascular EC, as well as MØ", "assay": "Flow cytometry of CD40 and CD40L cell surface expression", "experimental": "as §1\nHuman vascular EC, SMC, or MØ were washed with ice-cold PBS, harvested by trypsinization, and fixed (PBS/4% paraformaldehyde, 15 min). Subsequently, the cells were washed once with PBS/2% BSA before being incubated (1 h, 4° C.) with either buffer alone or FITC-conjugated control IgG, mouse-anti-human CD40, or mouse-anti-human CD40L antibody (1 μg/ml; PharMingen, San Diego, Calif.). Finally, cells were washed with PBS/2% BSA and analyzed in a Becton Dickinson FACSCAN® flow cytometer employing […]® software (Becton Dickinson; San Jose, Calif.). At least 20,000 viable cells per condition were analyzed."}}}
{"smiles": "CC(O)(CCO)CC(=O)O", "note": "(centres unmarked) [Mevalonate]", "values": [{"measurement": "Effect on the expression of CD40 and CD40L diminished by statins", "setting": "[1]; protein, Western blot", "result": "reversed"}, {"measurement": "Effect on the expression of CD40 and CD40L transcripts diminished by statins", "setting": "human vascular EC and MØ", "result": "reversed"}]}
{"smiles": "CC(C)c1c(C(=O)Nc2ccccc2)c(-c2ccccc2)c(-c2ccc(F)cc2)n1CC[C@@H](O)C[C@@H](O)CC(=O)O", "note": "[atorvastatin]", "values": [{"measurement": "Concentration required to reduce CD40/CD40L expression", "setting": "[1]; Western blot", "result": 100, "unit": "nM"}, {"measurement": "Constitutive as well as cytokine-induced expression of CD40 and CD40L protein and transcript", "setting": "[1]; human vascular EC, SMC, and MØ, summary in the discussion, also covers RT-PCR", "result": "significantly diminished"}, {"measurement": "Order of the statins by concentration needed for equal reduction in CD40/CD40L expression", "setting": "[2]", "result": "cerivastatin>simvastatin=atorvastatin"}]}
{"smiles": "COCc1c(C(C)C)nc(C(C)C)c(/C=C/[C@@H](O)C[C@@H](O)CC(=O)O)c1-c1ccc(F)cc1", "note": "[cerivastatin]", "values": [{"measurement": "Concentration at which the constitutive as well as IL-1β/TNFα/IFNγ-induced expression of the receptor (CD40) was diminished", "setting": "[1]; EC, Western blot", "result": "> 2", "unit": "nM"}, {"measurement": "Concentration for maximal inhibition of CD40 expression", "setting": "[1]; EC, Western blot", "result": "10 to 50", "unit": "nM"}]}
{"smiles": "CCC(C)(C)C(=O)O[C@H]1C[C@@H](C)C=C2C=C[C@H](C)[C@H](CC[C@@H]3C[C@@H](O)CC(=O)O3)[C@H]21", "note": "[simvastatin]", "values": [{"measurement": "Concentration required to reduce CD40/CD40L expression", "setting": "[1]; Western blot", "result": 100, "unit": "nM"}]}
